Data set [1] deals with viral M1 and M2 protein (influenza A/WSN/33). It counts as cell-based, influenza A virus.
The next data set relates to A549 cells. Briefly: Influence of TG003 on cell viability (WST-1 assay). It counts as cell-based, human. Particulars: TG003 50 μM. As for the experimental part:
FIG. 18|Influence of the chemical CLK1 inhibitor TG003 on cell viability. A549 cells were incubated with TG003 (50 μM, dissolved in DMSO), with DMSO or left untreated. Cell viability was evaluated at the indicated time points using the WST-1 assay, according to the manufacturer's instructions. Shown are the mean values from three replicates. Error bars indicate the standard deviation.
Determination of host cell viability upon siRNA transfection was performed using cell proliferation assay WST-1 (Roche, Mannheim, Germany). WST-1 reagent was added to the cells 48 h after siRNA transfection and incubated at 37° C. for 1.5 h. Absorbance was measured at 460 nm and at the reference wavelength 590 nm. Non-targeting siRNA Allstars and siPLK1 were used as a […].
For orientation: Tetrazolium dyes change colour on reduction, which living cells bring about.

The test system of data set [2] is vesicular stomatitis virus (VSV). Type of data set: cell-based. The settings on record: TG003 50 μM, A549 pretreated 24 h, VSV MOI 0.01, 24 h p.i.
Data set [3] relates to viral M1 and M2 mRNA (influenza A/WSN/33). It counts as cell-based, influenza A virus.
Data set [4] relates to influenza A/Hamburg/04/2009 (H1N1) virus. It counts as cell-based.
Data set [5] deals with influenza A/WSN/33 (H1N1) virus. It counts as cell-based.

As for `CCN1/C(=C/C(C)=O)Sc2ccc(OC)cc21` [TG003], in data set [1], the M1 protein levels result is “remained relatively constant” and the M2 protein levels entry is on record as “drastically reduced”. In addition, the “toxic effects (cell viability, WST-1)” value in the data set on A549 cells is “without exerting detectable toxic effects”. In data set [2], the “replication of vesicular stomatitis virus (VSV)” value is “only slightly reduced”. Besides, in data set [3], the “levels of spliced M2 viral RNA” value was “reduced”; the “unspliced M1 and NS1/NS2 viral RNA” value is reported as “unaffected”.

On to WNT3A, for which, in data set [4], the “normalised inhibition of infectious virus particles, siRNA1” value is given as 0.53; the “normalised inhibition of infectious virus particles, siRNA2” value is given as 0.4; the “normalised inhibition of infectious virus particles, siRNA3” value is recorded as 0.91; the “normalised inhibition of infectious virus particles, siRNA4” value came out at 1.1. In data set [5], the “normalised inhibition of infectious virus particles, siRNA1” value came out at 0.36; the “normalised inhibition of infectious virus particles, siRNA2” value is reported as −0.16; the “normalised inhibition of infectious virus particles, siRNA3” value is given as 0.64; the “normalised inhibition of infectious virus particles, siRNA4” value came out at 0.81.

Values taken from patent US8933046B2 (priority 2009, dated 2015).
